Where two headings read alike, the source gives them in different places.
How the values were obtained:
[1] = target: T1, EGFR^T790M (Homo sapiens, UniProt P00533, T790M); assay: EGFR^T790M inhibitory assay (HTRF KinEASE-TK); type: biochemical; details: for IC50: HTRF KinEASE-TK, read-out: EGFR^T790M Inhibition IC50 ± SEM
T1 construct: purchased Carna Bioscience
Procedure: Osimertinib served as the positive control.
EGFRT790M inhibitory assay
The EGFR protein (EGFRT790M) was purchased from Carna Bioscience. The HTRF KinEASE-TK kit (Cat#62TK0PEB) was from Cisbio. All the other chemicals were […]
low volume, black, NBS), using Cisbio HTRF KinEASE -TK kit. The assay buffer contained 50 mM HEPES (Ph 7.0), 0.02% NaN3, 0.01% BSA, 0.1 mM Orthovanadate, […]
EGFR kinases was first incubated with compounds for 2 h respectively, then ATP/Peptide substrate mixture was added to initiate the reaction. After 30 min reaction at room temperature, the detection reagents were added. The TR-FRET signal was measured on PerkinElmer Envision using […]
The data was analyzed using Graph
Pad Prism (Version 6.0) software after three parallel experiments. […]

[2] = tested on: A-549 (epithelial cancer cell line); assay: Antiproliferative assay, A-549; type: cell-based; details: Homo sapiens, A549; read-out: Antiproliferative Activity IC50 ± SEM A-549
Procedure: (§1) For ease of manipulation, the average (GI50) versus the four cancer cell lines was used.
(§2) To investigate the antiproliferative potential of 3a–e, 4a–c, and 5a–c, the MTT assay was carried out using various cell lines in accordance with previously reported procedures. See Appendix SA (Supplementary Materials). […]
(§3) ethylenediamine tetra acetic acid (EDTA) was used to passage the cells after every 2-3 days. 96-well flat-bottomed cell culture plates were used to seed the cells at a density of 10^4 cells mL-1. The medium was aspirated from all the wells of culture plates after 24 h followed by the addition of synthesized compounds (in 200 μL medium to yield a final concentration of 0.1% (v/v) dimethylsulfoxide) into individual wells of the plates.
(§4) Four wells were designated to a single compound. The plates were allowed to incubate at 37°C for 96 h. Afterwards, the medium was aspirated and 3-[4,5-dimethylthiazol-2-yl]-2,5-diphenyltetrazolium bromide (MTT) (0.4 mg/mL) in medium was added to each well and subsequently incubated for 3 h. The medium was aspirated and 150 μL dimethyl sulfoxide (DMSO) was added to each well. The plates were vortexed followed by the measurement of absorbance at 540 nm on a microplate reader. The results were presented as inhibition (%) of proliferation in contrast to controls comprising 0.1% 4.2.1.2. Assay for antiproliferative effect
(§5) To explore the antiproliferative potential of compounds propidium iodide fluorescence assay was performed using different cell lines such as Panc-1 (pancreas cancer cell […]
(§6) (epithelial cancer cell line), respectively. To calculate the total nuclear DNA, a fluorescent dye (propidium iodide, PI) is used which can attach to the DNA, thus offering a quick and precise technique. PI cannot pass through the cell membrane and its signal intensity can be considered as directly proportional to quantity of cellular
(§7) DNA. Cells whose cell membranes are damaged or have changed permeability are counted as dead ones. The assay was performed by seeding the cells of different cell lines at a density of 3000-7500 cells/well (in200μl medium) in culture plates followed […]
(§8) The medium was removed; the compounds were added to the plates at 10 μM concentrations (in 0.1% DMSO) in triplicates, followed by incubation for 48h. DMSO (0.1%) was used as control. After incubation, medium was removed followed by the addition of PI (25 μl, 50μg/mL in water/medium) to each well of the plates. At -80 °C, the plates were allowed to freeze for 24 h, followed by thawing at 25 °C. A fluorometer (Polar-Star BMG Tech) was used to record the readings at excitation and emission wavelengths of 530 and 620 nm for each well. The percentage cytotoxicity of compounds was calculated using the following formula:
(§9) Where ATC= Absorbance of treated cells and AC= Absorbance of control. […]
(§10) was used as positive control in the assay. […]

[3] = tested on: Panc-1 (pancreatic cancer cell line); assay: Antiproliferative assay, Panc-1; type: cell-based; details: Homo sapiens, read-out: Antiproliferative Activity IC50 ± SEM Panc-1
Procedure: as §1, §2, §3, §4, §5, §6, §7, §8, §9, §10

[4] = Cell viability assay (MTT) on normal mammary epithelial cells; type: cell-based; details: human, MCF-10A normal mammary gland epithelial cells, four days of incubation
Procedure: The viability test was performed on a normal human mammary gland epithelial cell line (MCF-10A). The MTT test was used to assess the viability of compounds 3a–e, 4a–c, and 5a–c.
The MTT assay was used to determine how the synthesized compounds affected the viability of mammary epithelial cells (MCF-10A). See Appendix SA (Supplementary Materials). […]
4.2. Biological evaluation
4.2.1. Cytotoxic activity using MTT Assay and evaluation of IC50
MTT assay was performed to investigate the effect of the synthesized compounds on mammary epithelial cells (MCF-10A). The cells were propagated in medium consisting of Ham's F-12 medium/ Dulbecco's modified Eagle's medium (DMEM) (1:1) supplemented with 10% foetal calf serum, 2 mM glutamine, insulin (10 μg/mL), hydrocortisone (500 ng/mL) and epidermal growth factor (20 ng/mL). Trypsin ethylenediamine tetra acetic acid (EDTA) was used to passage the cells after every 2-3 days. 96-well flat-bottomed cell culture plates were used to seed the cells at a density of 10^4 cells mL-1. The medium was aspirated from all the wells of culture plates after 24 h followed by the addition of synthesized compounds (in 200 μL medium to yield a final concentration of 0.1% (v/v) dimethylsulfoxide) into individual wells of the plates.
as §4, with “The results were presented as inhibition (%) of proliferation in contrast to controls comprising 0.1% 4.2.1.2. Assay for antiproliferative effect” left out

[5] = tested on: HT-29 (colon cancer cell line); assay: Antiproliferative assay, HT-29; type: cell-based; details: Homo sapiens, read-out: Antiproliferative Activity IC50 ± SEM HT-29
Procedure: as §1, §2, §3, §4, §5, §6, §7, §8, §9, §10

[6] = tested on: MCF-7 (breast cancer cell line); assay: Antiproliferative assay, MCF-7; type: cell-based; details: Homo sapiens, MCF7; read-out: Antiproliferative Activity IC50 ± SEM MCF-7
Procedure: as §1, §2, §3, §4, §5, §6, §7, §8, §9, §10

[7] = target: T2, EGFR (Homo sapiens, UniProt P00533); assay: EGFR-TK inhibitory assay
T2 sequence (P00533 669-1210): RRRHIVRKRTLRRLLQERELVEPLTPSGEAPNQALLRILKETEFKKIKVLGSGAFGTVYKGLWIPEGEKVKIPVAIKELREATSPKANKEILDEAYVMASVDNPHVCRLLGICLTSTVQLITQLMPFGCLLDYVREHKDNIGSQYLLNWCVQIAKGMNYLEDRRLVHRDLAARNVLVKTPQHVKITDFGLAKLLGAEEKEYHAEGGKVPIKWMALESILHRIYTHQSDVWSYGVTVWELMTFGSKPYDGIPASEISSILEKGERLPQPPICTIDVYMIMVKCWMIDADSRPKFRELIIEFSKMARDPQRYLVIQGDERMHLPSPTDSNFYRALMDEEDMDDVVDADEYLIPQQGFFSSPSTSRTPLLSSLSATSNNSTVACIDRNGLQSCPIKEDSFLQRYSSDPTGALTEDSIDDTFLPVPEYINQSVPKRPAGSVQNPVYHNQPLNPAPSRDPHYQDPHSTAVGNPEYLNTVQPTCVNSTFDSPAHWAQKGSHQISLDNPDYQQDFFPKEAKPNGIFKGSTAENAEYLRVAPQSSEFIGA

[8] = target: T3, BRAF^V600E (Mus musculus, UniProt P28028, V585E); assay: V600E mutant BRAF kinase assay; type: biochemical; details: read-out: BRAF^V600E Inhibition IC50 ± SEM
T3 construct: Mouse full-length GST-tagged; GST; purchased Invitrogen PV3849
T3 sequence (P28028 whole entry V585E): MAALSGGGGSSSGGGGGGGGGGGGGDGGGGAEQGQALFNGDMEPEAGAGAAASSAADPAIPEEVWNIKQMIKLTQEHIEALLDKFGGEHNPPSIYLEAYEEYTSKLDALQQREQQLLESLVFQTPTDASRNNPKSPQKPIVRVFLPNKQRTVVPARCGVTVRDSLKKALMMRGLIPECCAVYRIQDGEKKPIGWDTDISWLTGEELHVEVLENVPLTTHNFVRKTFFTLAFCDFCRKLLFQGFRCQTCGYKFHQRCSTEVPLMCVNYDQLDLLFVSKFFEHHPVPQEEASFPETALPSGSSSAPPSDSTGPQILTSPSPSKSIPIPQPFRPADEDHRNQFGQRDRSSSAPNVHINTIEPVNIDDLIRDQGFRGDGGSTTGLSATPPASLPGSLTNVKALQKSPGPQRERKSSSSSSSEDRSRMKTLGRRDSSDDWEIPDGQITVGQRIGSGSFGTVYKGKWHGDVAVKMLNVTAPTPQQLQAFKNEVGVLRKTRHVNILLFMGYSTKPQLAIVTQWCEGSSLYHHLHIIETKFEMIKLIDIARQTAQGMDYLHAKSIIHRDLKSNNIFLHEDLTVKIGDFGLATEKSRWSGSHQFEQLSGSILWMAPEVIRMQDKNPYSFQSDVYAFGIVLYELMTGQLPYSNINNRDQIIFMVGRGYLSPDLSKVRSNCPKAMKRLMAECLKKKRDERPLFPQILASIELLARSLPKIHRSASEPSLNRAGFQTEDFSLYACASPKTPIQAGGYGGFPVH
Procedure: V600E mutant BRAF kinase assay was performed to investigate the activity of […]
Mouse full-length GST-tagged
BRAFV600E (7.5 ng, Invitrogen, PV3849) was pre -incubated with drug (1 µL) and assay dilution buffer (4 µL) for 6 0 min at 25 °C. In assay dilution buffer, a solution (5 µL) containing MgCl2 (30 mM), ATP (200 µM), recombinant human full length (200 ng) […] N-terminal His-tagged MEK1 (Invitrogen) was added to start the assay, after incubation for 25 min at 25 °C. The assay was stopped using 5X protein denaturing buffer (LDS) solution (5 µL). To further denature the protein, heat (70° C) was applied […]
electrophoresis (at 200 V). 10 µL of each reaction was loaded into the precast plates and electrophoresis was allowed to proceed. After completion of electrophoresis, the front part of the precast gel plate (holding hot ATP) was cut and afterwards cast -off.
The dried gel was developed using a phosphor screen. […]
Computerized Prism 5 program was used to statistically analyzed data using one-way ANOVA test followed by Tukey’s as post ANOVA for multiple comparison at P ≤.05.
Data were presented as mean ± SEM.

[9] = tested on: LOX-IMVI melanoma cell line; assay: LOX-IMVI melanoma cell line cytotoxicity assay (MTT); type: cell-based; details: Homo sapiens, 5-dose concentrations, read-out: LOX-IMVI Melanoma IC50 ± SEM
Procedure: The IC50 values of the test compounds were determined at 5-dose concentrations, with staurosporine serving as a control.
The anticancer activity of the synthesized derivatives was determined using the MTT cytotoxicity assay on LOX-IMVI melanoma cell line. See Appendix SA (Supplementary Materials).

[10] = tested on: four human cancer cell lines (Panc-1, MCF-7, HT-29, A-549); assay: Antiproliferative assay, average (GI50) versus the four cancer cell lines; type: cell-based; details: Homo sapiens; average versus the four cancer cell lines
Procedure: as §1, §2, §3, §4, §5, §6, §7, §8, §9, §10

[11] = tested on: c-MET; set-up: method as in PMID 29758406; details: cited from earlier work
[12] = tested on: EGFR^L858R; set-up: method as in PMID 29758406; details: cited from earlier work
[13] = target: T1, EGFR^T790M; details: cited from earlier work
[14] = tested on: BRAF^V600E; details: cited from earlier work
[15] = target: T2, EGFR; set-up: CD, amino acids 645–1186); His6 (N); made in house; host or cells: Sf-9 insect cells (baculovirus; pBlueBacHis2B / pFASTBacHTc; details: cited from earlier work
[16] = tested on: four cancer cell lines; set-up: method as in PMID 32920363; details: read-out: GI50 against four cancer cell lines; cited from earlier work

T1 sequence (P00533 25-1210 T790M): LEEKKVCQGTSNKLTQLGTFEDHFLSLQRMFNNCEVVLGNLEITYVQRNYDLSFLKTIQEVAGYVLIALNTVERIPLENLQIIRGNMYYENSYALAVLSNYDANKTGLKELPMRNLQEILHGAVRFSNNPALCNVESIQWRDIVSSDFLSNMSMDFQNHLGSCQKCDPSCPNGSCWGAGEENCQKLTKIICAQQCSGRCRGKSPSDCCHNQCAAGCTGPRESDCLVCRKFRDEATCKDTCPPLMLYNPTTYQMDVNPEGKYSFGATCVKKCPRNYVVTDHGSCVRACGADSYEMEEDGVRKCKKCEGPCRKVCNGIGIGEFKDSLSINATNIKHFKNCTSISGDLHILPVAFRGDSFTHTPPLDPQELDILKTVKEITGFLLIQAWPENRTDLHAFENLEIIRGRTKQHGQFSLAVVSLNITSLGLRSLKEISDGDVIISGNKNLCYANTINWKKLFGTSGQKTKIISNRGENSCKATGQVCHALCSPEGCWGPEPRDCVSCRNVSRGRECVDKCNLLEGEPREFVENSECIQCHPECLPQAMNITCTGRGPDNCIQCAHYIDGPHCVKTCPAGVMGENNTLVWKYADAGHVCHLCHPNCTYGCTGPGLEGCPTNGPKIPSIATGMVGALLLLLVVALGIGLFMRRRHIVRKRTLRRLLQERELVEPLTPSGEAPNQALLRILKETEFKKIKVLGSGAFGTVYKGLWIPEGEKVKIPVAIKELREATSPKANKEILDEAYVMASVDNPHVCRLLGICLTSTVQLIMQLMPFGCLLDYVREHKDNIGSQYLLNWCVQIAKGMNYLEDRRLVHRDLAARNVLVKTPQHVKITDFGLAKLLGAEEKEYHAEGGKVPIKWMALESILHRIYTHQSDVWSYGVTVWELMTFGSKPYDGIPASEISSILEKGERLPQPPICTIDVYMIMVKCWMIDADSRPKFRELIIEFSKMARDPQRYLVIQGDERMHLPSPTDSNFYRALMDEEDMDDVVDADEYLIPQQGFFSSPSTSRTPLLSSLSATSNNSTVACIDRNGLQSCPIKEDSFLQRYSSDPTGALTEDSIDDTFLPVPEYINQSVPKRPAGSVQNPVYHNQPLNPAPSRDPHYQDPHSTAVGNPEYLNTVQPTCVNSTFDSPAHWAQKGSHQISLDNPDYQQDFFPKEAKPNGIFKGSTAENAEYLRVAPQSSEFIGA

| selectivity index toward EGFR^T790M protein over wild-type EGFR [1] [fold] | IC50 [1] [nM] | IC50 [2] [nM] | IC50 [3] [nM] | IC50 [5] [nM] | IC50 [6] [nM] | IC50 [7] [nM] | IC50 [8] [nM] | GI50 [10] [nM] | fold more potent than erlotinib (EGFR IC50) ([7]; relative to erlotinib IC50 = 80 nM) [fold] | Compound | viability at 96 h, 50 µM [4] [%] | IC50 [9] [nM] | IC50 [11] [nM] | IC50 [12] [nM] | IC50 [13] [nM] | IC50 [14] [nM] | IC50 [15] [nM] | GI50 [16] [nM] |
| --- | --- | --- | --- | --- | --- | --- | --- | --- | --- | --- | --- | --- | --- | --- | --- | --- | --- | --- |
| 8 | 9.2 ± 2 | 30 ± 3 | 30 ± 3 | 32 ± 3 | 32 ± 3 | 74 ± 5 | 39 ± 3 | 31 | – | CCOC(=O)c1[nH]c2ccc(Cl)cc2c1CNCCc1ccc(N2CCCC2)cc1 [Compound 3b, Ethyl 5-chloro-3-((4-(pyrrolidin-1-yl)phenethylamino)methyl)-1H-indole-2-carboxylate] | 91 | 1120 ± 10 | – | – | – | – | – | – |
| 8 | 8.6 ± 2 | 27 ± 2 | 29 ± 3 | 30 ± 3 | 30 ± 3 | 68 ± 5 | 35 ± 3 | 29 | 1.2 | CCOC(=O)c1[nH]c2ccc(Cl)cc2c1CNCCc1cccc(N2CCCCC2)c1 [Compound 3e, Ethyl 5-chloro-3-((3-(piperidin-1-yl)phenethylamino)methyl)-1H-indole-2-carboxylate] | 92 | 960 ± 10 | – | – | – | – | – | – |
| – | – | – | – | – | – | – | – | – | – | CCc1ccc(Cn2cc(-c3cc(-c4ccc(Br)cc4)nc(N)n3)c3ccccc32)cc1 [Compound II] | – | – | 595 | 99 | 94 | – | – | – |
| – | – | – | – | – | – | – | – | – | – | Cc1c2n(c3ccc(Cl)cc13)C(=O)CN(CCc1ccc(N3CCOCC3)cc1)C2=O [Compound VI] | – | – | – | – | – | 150 | 80 | 1110 |
